Measurements taken from US20040029178A1, “Novel g protein-coupled receptor proteins and dnas thereof” (priority 2000, published 2004).
Peptide text beside a SMILES is read from it.

molecular target: T1, TGR26 (Rattus norvegicus, UniProt Q56UD9); test: Receptor binding using [125I-Tyr10]-hGPR8L (1-23) and membrane fraction of TGR26 expressing CHO cells; conditions: membrane fraction of TGR26 expressing CHO cells, [125I-Tyr10]-hGPR8L (1-23), method of Example 8
T1 construct: expressed in transfected cells; whole cells in A1, membrane fraction in A2 and A3
T1 sequence (Q56UD9 1-329): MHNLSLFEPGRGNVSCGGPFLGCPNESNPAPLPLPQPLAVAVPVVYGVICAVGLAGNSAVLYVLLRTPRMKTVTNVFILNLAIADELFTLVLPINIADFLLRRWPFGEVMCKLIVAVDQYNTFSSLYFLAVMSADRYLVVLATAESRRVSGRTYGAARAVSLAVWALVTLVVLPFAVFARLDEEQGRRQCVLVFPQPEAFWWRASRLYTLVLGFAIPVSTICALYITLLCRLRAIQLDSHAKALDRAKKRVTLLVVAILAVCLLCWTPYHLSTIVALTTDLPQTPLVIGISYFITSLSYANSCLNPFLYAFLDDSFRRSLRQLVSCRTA
Procedure: Using [^125I-Tyr^10]-hGPR8L (1-23) prepared by the method described in Reference Example 15 and a cell membrane fraction prepared from TGR26 expressing cells as described in Example 6, a receptor binding assay was carried out as follows.
Cell membrane fraction prepared from TGR26 expressing cells was diluted to various concentration with assay buffer (25 mM Tris-HCl, 5 mM EDTA, 0.05% CHAPS (3-[(3-Cholamidopropyl) Dimethyl-Ammonio]-1-Propanesulfonate), 0.1% BSA, 0.5 mM PMSF, 1 μg/ml Pepstatin, 20 μg/ml Leupeptin, 4 μg/ml E-64, pH 7.4), and 200 μl each of the diluent was dispensed into polypropilene test tube (Falcon 2053). In order to determine an amount of maximum binding, 2 μl of DMSO and 2 μl of 7 nM [^125I-Tyr^10]-hGPR8L (1-23) were added to the membrane fraction solution. Further, in order to determine a non-specific binding, 2 μl of 100 μM hGPR8L (1-23)/DMSO solution and 2 μl of 7 nM [^125I-Tyr^10]-hGPR8L (1-23) were added to the membrane fraction solution. The reaction was done at 25° C. for 75 minutes, and the reaction mixture was filtered by suction filtration using Whatman glassfilter (GF-F) treated with polyethyleneimine. In addition, the filter was washed twice with 1.5 ml of washing buffer (25 mM Tris-HCl, 5 mM EDTA, 0.05% CHAPS, 0.1% BSA, pH 7.4). After filtration, a radioactivity remaining on the filter was counted using γ-counter, and an amount of specific binding was estimated by subtracting an amount of non-specific binding from an amount of maximum binding.
Where the concentration of membrane fraction was set to 3 μg/ml, an inhibition for the specific binding of [125I-Tyr^10]-hGPR8L (1-23) to the membrane fraction of TGR26 expressing cells by hGPR8L (1-23) and hGPR8L (1-30) was investigated.
A receptor binding activity of human- and porcine-homologue derivatives of GPR8 ligand peptide obtained in the reference examples was measured using a membrane fraction of TGR26 expressing CHO cells and [^125I-Tyr^10]-hGPR8L (1-23) by the method described in Example 8. The receptor binding activity is represented by concentration of 50% inhibition for binding (IC50 value).

**Q.** For `CSCC[C@H](NC(=O)[C@H](CC(C)C)NC(=O)[C@H](CC(C)C)NC(=O)CNC(=O)[C@H](C)NC(=O)[C@H](C)NC(=O)[C@H](CCCNC(=N)N)NC(=O)CNC(=O)[C@@H](NC(=O)[C@@H](NC(=O)[C@H](Cc1c[nH]cn1)NC(=O)[C@H](Cc1ccc(O)cc1)NC(=O)[C@H](CCCNC(=N)N)NC(=O)[C@@H]1CCCN1C(=O)[C@H](CO)NC(=O)[C@H](C)NC(=O)[C@@H](NC(=O)[C@H](Cc1c[nH]cn1)NC(=O)[C@H](CCCCN)NC(=O)[C@H](Cc1ccc(O)cc1)NC(C)=O)C(C)C)[C@@H](C)O)C(C)C)C(=O)NCC(=O)N[C@@H](CC(C)C)C(=O)O` [Ac-hGPR8L (2-23), Ac-Tyr-Lys-His -Val-Ala-Ser-Pro-Arg-Tyr-His-Thr-Val-Gly-Arg-Ala-Ala-Gly-Leu-Leu-Met-Gly-Leu] (Ac-YKHVASPRYHTVGRAAGLLMGL-OH; C-terminus assumed), which IC50 is on record?
**A.** 570000 pM

**Q.** How did the IC50 turn out when `CSCC[C@H](NC(=O)[C@H](CC(C)C)NC(=O)[C@H](CC(C)C)NC(=O)CNC(=O)[C@H](C)NC(=O)[C@H](C)NC(=O)[C@H](CCCNC(=N)N)NC(=O)CNC(=O)[C@@H](NC(=O)[C@@H](NC(=O)[C@H](Cc1c[nH]cn1)NC(=O)[C@H](Cc1ccc(O)cc1)NC(=O)[C@H](CCCNC(=N)N)NC(=O)[C@@H]1CCCN1C(=O)[C@H](CO)NC(=O)[C@H](C)NC(=O)[C@@H](NC(=O)[C@H](Cc1c[nH]cn1)NC(=O)[C@H](CCCCN)NC(=O)[C@H](Cc1ccc(O)cc1)NC(=O)[C@H](Cc1c[nH]c2ccccc12)NC(=O)OCC1c2ccccc2-c2ccccc21)C(C)C)[C@@H](C)O)C(C)C)C(=O)NCC(=O)N[C@@H](CC(C)C)C(=O)O` [Fmoc-hGPR8L (1-23)] was run?
**A.** 230 pM

**Q.** Which IC50 does the source give for `CSCC[C@H](NC(=O)[C@H](CC(C)C)NC(=O)[C@H](CC(C)C)NC(=O)CNC(=O)[C@H](C)NC(=O)[C@H](C)NC(=O)[C@H](CCCNC(=N)N)NC(=O)CNC(=O)[C@@H](NC(=O)[C@@H](NC(=O)[C@H](Cc1c[nH]cn1)NC(=O)[C@H](Cc1ccc(O)cc1)NC(=O)[C@H](CCCNC(=N)N)NC(=O)[C@@H]1CCCN1C(=O)[C@H](CO)NC(=O)[C@H](C)NC(=O)[C@@H](NC(=O)[C@H](Cc1c[nH]cn1)NC(=O)[C@H](CCCCN)NC(=O)[C@H](Cc1ccc(O)cc1)NC(=O)CCc1c[nH]c2ccccc12)C(C)C)[C@@H](C)O)C(C)C)C(=O)NCC(=O)N[C@@H](CC(C)C)C(=O)O` [IndPr-hGPR8L (2-23)] (HELM PEPTIDE1{[O=C(CCc1c[nH]c2ccccc12)[*:2]].Y.K.H.V.A.S.P.R.Y.H.T.V.G.R.A.A.G.L.L.M.G.L}$$$$V2.0; C-terminus assumed) here?
**A.** 120 pM

**Q.** For `CSCC[C@H](NC(=O)[C@H](CC(C)C)NC(=O)[C@H](CC(C)C)NC(=O)CNC(=O)[C@H](C)NC(=O)[C@H](C)NC(=O)[C@H](CCCNC(=N)N)NC(=O)CNC(=O)[C@@H](NC(=O)[C@@H](NC(=O)[C@H](Cc1c[nH]cn1)NC(=O)[C@H](Cc1ccc(O)cc1)NC(=O)[C@H](CCCNC(=N)N)NC(=O)[C@@H]1CCCN1C(=O)[C@H](CO)NC(=O)[C@H](C)NC(=O)[C@@H](NC(=O)[C@H](Cc1c[nH]cn1)NC(=O)[C@H](CCCCN)NC(=O)[C@H](Cc1ccc(O)cc1)NC(=O)[C@H](N)Cc1c[nH]c2ccccc12)C(C)C)[C@@H](C)O)C(C)C)C(=O)NCC(=O)N[C@@H](CC(C)C)C(=O)O` [[D-Trp^1]-hGPR8L (1-23), D-Trp-Tyr-Lys-His-Val -Ala-Ser-Pro-Arg-Tyr-His-Thr-Val-Gly-Arg-Ala-Ala-Gly-Leu-Leu-Met-Gly-Leu], which IC50 is on record?
**A.** 1300 pM
